Data reported in US4593090A, “Novel nitrosourea compounds, method for preparing same, and pharmaceutical composition containing same” (Gogo Kimura, priority 1981, dated 1986).

Experiments:
Leukemia L1210 = assay: Activity against Leukemia L1210, intraperitoneal, increase in life span of mice; format: in vivo, female mice (BDF1 family); conditions: for ED (maximum ILS) / ED30: Mus musculus, L1210, ip, ip once a day for 5 successive days; for ED (maximum ILS): daily dosage giving maximum increase of life span, read-out: O.D. (optimum dosage); for ED30: daily dosage increasing average survival days by 30%, read-out: ILS30; for Survivors after 60 days / Max. ILS % / Therapeutic ratio TR: ip; for Survivors after 60 days: 6-membered group; for Max. ILS %: 60-day observation, versus control; for Therapeutic ratio TR: O.D./ILS30
Procedure: Tests were conducted in accordance with the method for measuring antitumor activity of National Cancer Center Tokyo (A, Hoshi et al, Farumashia 9 464 (1973)). Test compounds were each intraperitoneally (referred to as ip) or orally (referred to as op) administered once a day for 5 successive days to a 6-membered group of femal mice (BDF1 family, each weighing 20 to 23 g) 24 hours after 1×10^5 cells of Leukemia L1210 have been implantated into the abdominal cavities of the mice, and the effect was evaluated by comparing the survival days of treated groups with those of an untreated group of mice (control group) in 60-day observation. An increase percentage of life span (ILS%) was calculated from said average survival days compared with those of the control group. Further, therapeutic ratio (O.D./ILD30, referred to as T.R.) of each tested compound was calculated from the daily dosage of the compound necessary to increase said average survival days by 30% as compared with the control group (this dosage is referred to as ILS 30) and the daily dosage giving a maximum increase of life span to mice implantated with L1210 cells, namely an optimum dosage (referred to as O.D.). The results of five successive days intraperitoneal administrations of test compounds were shown in Tables I to III, and those of five successive oral administrations in Table IV.

[1] = Acute toxicity (LD50, Behrens-Karber method); format: in vivo, ICR mice; conditions: mouse, in vivo, ip, mortality during 30 days
Procedure: Test compounds, dissolved or suspended in 0.5% aqueous CMC, were each intraperitoneally administered to ICR mice in a dose of 0.1 ml per 10 g body weight. LD50 (mg/kg) value of each test compound was calculated from the mortality of mice during 30 days by the Behrens-Karber method.

| Structure (SMILES) | ED (maximum ILS) (Leukemia L1210) [mg/kg] | ED30 (Leukemia L1210) [mg/kg] | Survivors after 60 days (Leukemia L1210) | Max. ILS % (Leukemia L1210) [%] | Therapeutic ratio TR (Leukemia L1210) | LD50 at 720 h [1] [mg/kg] |
| --- | --- | --- | --- | --- | --- | --- |
| CC(C)CN(C(=O)N(CCCl)N=O)[C@H]1[C@H](O)[C@H](OC2CCCCC2)O[C@@H]1CO [Compound 163, 3-isobutyl-3-(cyclohexyl β-D-arabinofuranose-3-yl)-1-(2-chloroethyl)-1-nitrosourea] | 160 | 4.91 | 3/6 | > 365 | 32.6 | 550 |
| C=C(C)CN(C[C@H]1O[C@H](OC(C)CC)[C@H](O)[C@@H](O)[C@@H]1O)C(=O)N(CCCl)N=O (stereo partly drawn) [Compound 18, 3-(2-methyl-2-propenyl)-3-(sec-butyl α-D-glucopyranose-6-yl)-1-(2-chloroethyl)-1-nitrosourea] | 170 | 3.92 | 6/6 | > 700 | 43.4 | 515 |
| CCCCO[C@H]1O[C@H](CO)[C@@H](O)[C@H](O)[C@H]1N(CCCC)C(=O)N(CCCl)N=O [Compound 55, 3-n-butyl-3-(n-butyl α-D-glucopyranose-2-yl)-1-(2-chloroethyl)-1-nitrosourea] | 180 | 6.05 | 3/6 | > 350 | 29.8 | 465 |
| CC(C)CO[C@H]1O[C@H](CO)[C@H](O)[C@H](N(CC(C)C)C(=O)N(CCCl)N=O)[C@H]1O [Compound 125, 3-isobutyl-3-(isobutyl α-D-galactopyranose-3-yl)-1-(2-chloroethyl)-1-nitrosourea] | 250 | 7.67 | 3/6 | > 350 | 32.6 | 780 |
| CC(C)N(C(=O)N(CCCl)N=O)[C@@H]1CO[C@H](OC2CCCCC2)[C@H](O)[C@H]1O [Compound 148, 3-isopropyl-3-(cyclohexyl α-D-xylopyranose-4-yl)-1-(2-chloroethyl)-1-nitrosourea] | 160 | 3.81 | 4/6 | > 425 | 42.0 | 480 |
| CCCCN(C(=O)N(CCCl)N=O)C1C(O)C(CO)OC(OCCCOC)C1O [Compound 76, 3-n-butyl-3-(3-methoxy-n-propyl α-D-glucopyranose-3-yl)-1-(2-chloroethyl)-1-nitrosourea] | 200 | 5.21 | 3/6 | > 360 | 38.4 | 650 |
| CCCCCCO[C@H]1O[C@H](CN(CC(C)C)C(=O)N(CCCl)N=O)[C@@H](O)[C@H](O)[C@H]1O [Compound 26, 3-isobutyl-3-(n-hexyl α-D-glucopyranose-6-yl)-1-(2-chloroethyl)-1-nitrosourea] | 140 | 4.63 | 3/6 | > 370 | 30.2 | 415 |
| CCC(C)O[C@@H]1OC[C@H](O)[C@H](O)[C@H]1N(CCCOC)C(=O)N(CCCl)N=O (stereo partly drawn) [Compound 158, 3-(3-methoxy-n-propyl)-3-(sec-butyl α-L-arabinopyranose-2-yl)-1-(2-chloroethyl)-1-nitrosourea] | 170 | 3.21 | 6/6 | > 700 | 53.0 | 530 |
| CCCN(C[C@@H]1O[C@@H](OCC(C)C)[C@@H](O)[C@H](O)[C@@H]1O)C(=O)N(CCCl)N=O [Compound 133, 3-n-propyl-3-(isobutyl α-L-galactopyranose-6-yl)-1-(2-chloroethyl)-1-nitrosourea] | 150 | 4.11 | 3/6 | > 360 | 36.5 | 495 |
| CC(C)CO[C@H]1O[C@H](CN(Cc2cccs2)C(=O)N(CCCl)N=O)[C@H](O)[C@H](O)[C@H]1O [Compound 112, 3-(thiophene-2-yl-methyl)-3-(isobutyl α-D-galactopyranose-6-yl)-1-(2-chloroethyl)-1-nitrosourea] | 180 | 4.17 | 3/6 | > 350 | 43.2 | 480 |
| CC(C)CO[C@H]1O[C@H](CO)[C@@H](N(C(=O)N(CCCl)N=O)C2CCCCC2)[C@H](O)[C@@H]1O [Compound 137, 3-cyclohexyl-3-(isobutyl α-D-mannopyranose-4-yl)-1-(2-chloroethyl)-1-nitrosourea] | 170 | 3.74 | 4/6 | > 425 | 45.5 | 550 |
| CCCCN(C[C@H]1O[C@H](OC2CCCCC2)[C@H](O)[C@@H](O)[C@H]1O)C(=O)N(CCCl)N=O [Compound 99, 3-n-butyl-3-(cyclohexyl α-D-galactopyranose-6-yl)-1-(2-chloroethyl)-1-nitrosourea] | 200 | 6.22 | 3/6 | > 330 | 32.2 | 630 |
| C=CCN(C[C@H]1O[C@H](OC2CCCCC2)[C@H](O)[C@@H](O)[C@@H]1O)C(=O)N(CCCl)N=O [Compound 38, 3-(2-propenyl) -3-(cyclohexyl α-D-glucopyranose-6-yl)-1-(2-chloroethyl)-1-nitrosourea] | 150 | 3.28 | 6/6 | > 700 | 45.7 | 430 |
| COc1cccc(CN(C[C@H]2O[C@H](OC3CCCCC3)[C@H](O)[C@@H](O)[C@@H]2O)C(=O)N(CCCl)N=O)c1OC [Compound 49, 3-(2,3-dimethoxybenzyl)-3-(cyclohexyl α-D-glucopyranose)-6-yl)-1-(2-chloroethyl-1-nitrosourea] | 170 | 4.74 | 4/6 | > 420 | 35.9 | 560 |
| O=NN(CCCl)C(=O)N(Cc1ccccc1)C[C@H]1O[C@H](OC2CCCCC2)[C@H](O)[C@@H](O)[C@@H]1O [Compound 46, 3-benzyl-3-(cyclohexyl α-D-glucopyranose-6-yl)-1-(2-chloroethyl)-1-nitrosourea] | 150 | 3.9 | 4/6 | > 425 | 38.5 | 510 |
| CC(C)CN(C[C@H]1O[C@@H](OCCN2CCOCC2)[C@H](O)[C@@H](O)[C@@H]1O)C(=O)N(CCCl)N=O [Compound 199, 3-isobutyl-3-(2-morpholinoethyl β-D-glucopyranose-6-yl)-1-(2-chloroethyl)-1-nitrosourea] | 160 | 3.2 | 6/6 | > 700 | 50.0 | 520 |
| CCCCO[C@H]1O[C@H](CN(CCC)C(=O)N(CCCl)N=O)[C@@H](O)[C@H](O)[C@H]1O [Compound 5, 3-n-propyl-3-(n-butyl α-D-glucopyranose-6-yl)-1-(2-chloroethyl)-1-nitrosourea] | 100 | 2.6 | 6/6 | > 700 | 38.5 | 325 |
| O=NN(CCCl)C(=O)N(CCC1CCCC1)C[C@H]1O[C@H](OC2CCCCC2)[C@H](O)[C@@H](O)[C@@H]1O [Compound 45, 3-(2-cyclopentylethyl)-3-(cyclohexyl α-D-glucopyranose-6-yl)-1-(2-chloroethyl)-1-nitrosourea] | 180 | 4.22 | 5/6 | > 625 | 42.7 | 560 |
| O=NN(CCCl)C(=O)N(CCC1CCCC1)C1C(OC2CCCCC2)OC(CO)C(O)C1O [Compound 67, 3-(2-cyclopentylethyl)-3-(cyclohexyl α-D-glucopyranose-2-yl)-1-(2-chloroethyl)-1-nitrosourea] | 200 | 7.5 | 3/6 | > 355 | 28.6 | 650 |
| CCOCCN(C[C@H]1O[C@H](OC2CCCCC2)[C@H](O)[C@@H](O)[C@H]1O)C(=O)N(CCCl)N=O [Compound 102, 3-(2-ethoxyethyl)-3-(cyclohexyl α-D-galactopyranose-6-yl)-1-(2-chloroethyl)-1-nitrosourea] | 200 | 3.81 | 5/6 | > 625 | 52.5 | 680 |
